Measured values as given in ChEMBL document CHEMBL3526086, “Identification of the oxidative and conjugative enzymes involved in the biotransformation of brivanib” (Drug Metab Dispos, 2012).

Experiments:
Liver cytosol [1] = test: Drug level in human liver cytosol treated with 2 uM [14C]brivanib alaninate for 2 hrs by LC/MS analysis in presence of PAPS; format: ADME, tissue-based
Sulfotransferase 1A1 = Sulfotransferase 1A1 (Homo sapiens, UniProt P50225); test: Activity of human SULT1A1 assessed as compound formation treated with 2 and 20 uM brivanib for 30 mins by LC/MS analysis in presence of PAPS; format: ADME; details: 0.5 h
Sulfotransferase 1A3 = Sulfotransferase 1A3 (Homo sapiens, UniProt P0DMM9); test: Activity of human SULT1A3 assessed as compound formation treated with 2 and 20 uM brivanib for 30 mins by LC/MS analysis in presence of PAPS; format: ADME; details: 0.5 h
Sulfotransferase 2A1 = Sulfotransferase 2A1 (Homo sapiens, UniProt Q06520); test: Activity of human SULT2A1 assessed as compound formation treated with 2 and 20 uM brivanib for 30 mins by LC/MS analysis in presence of PAPS; format: ADME; details: 0.5 h
Sulfotransferase 1B1 = Sulfotransferase 1B1 (Homo sapiens, UniProt O43704); test: Activity of human SULT1B1 assessed as compound formation treated with 2 and 20 uM brivanib for 30 mins by LC/MS analysis in presence of PAPS; format: ADME; details: 0.5 h
Sulfotransferase 1E1 = Sulfotransferase 1E1 (Homo sapiens, UniProt P49888); test: Activity of human SULT1E1 assessed as compound formation treated with 2 and 20 uM brivanib for 30 mins by LC/MS analysis in presence of PAPS; format: ADME; details: 0.5 h
Cytochrome P450 2D6 = Cytochrome P450 2D6 (Homo sapiens, UniProt P10635); test: Activity of human CYP2D6 assessed as compound formation treated with 2 and 20 uM brivanib for 20 mins by LC/MS analysis in presence of NADPH; format: ADME
Cytochrome P450 3A5 = Cytochrome P450 3A5 (Homo sapiens, UniProt P20815); test: Activity of human CYP3A5 assessed as compound formation treated with 2 and 20 uM brivanib for 20 mins by LC/MS analysis in presence of NADPH; format: ADME
Cytochrome P450 2C19 = Cytochrome P450 2C19 (Homo sapiens, UniProt P33261); test: Activity of human CYP2C19 assessed as compound formation treated with 2 and 20 uM brivanib for 20 mins by LC/MS analysis in presence of NADPH; format: ADME
Cytochrome P450 2C8 = target: T1, Cytochrome P450 2C8 (Homo sapiens, UniProt P10632); test: Activity of human CYP2C8 assessed as compound formation treated with 2 and 20 uM brivanib for 20 mins by LC/MS analysis in presence of NADPH; format: ADME
T1 sequence (P10632 whole entry): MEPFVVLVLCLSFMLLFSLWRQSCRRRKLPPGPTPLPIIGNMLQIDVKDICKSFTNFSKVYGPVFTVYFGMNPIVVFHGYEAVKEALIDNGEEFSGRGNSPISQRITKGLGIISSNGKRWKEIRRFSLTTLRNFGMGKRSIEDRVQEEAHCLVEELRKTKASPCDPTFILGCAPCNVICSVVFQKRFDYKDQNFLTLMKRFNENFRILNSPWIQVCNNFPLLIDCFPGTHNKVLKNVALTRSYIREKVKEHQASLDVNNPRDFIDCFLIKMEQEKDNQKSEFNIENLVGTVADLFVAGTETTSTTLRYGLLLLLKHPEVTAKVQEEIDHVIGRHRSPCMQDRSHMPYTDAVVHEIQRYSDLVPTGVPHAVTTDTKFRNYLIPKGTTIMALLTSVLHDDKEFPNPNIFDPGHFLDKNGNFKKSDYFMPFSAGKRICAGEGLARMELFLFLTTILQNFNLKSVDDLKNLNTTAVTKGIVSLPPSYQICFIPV

Cytochrome P450 2A6 = target: T2, Cytochrome P450 2A6 (Homo sapiens, UniProt P11509); test: Activity of human CYP2A6 assessed as compound formation treated with 2 and 20 uM brivanib for 20 mins by LC/MS analysis in presence of NADPH; format: ADME
T2 sequence (P11509 whole entry): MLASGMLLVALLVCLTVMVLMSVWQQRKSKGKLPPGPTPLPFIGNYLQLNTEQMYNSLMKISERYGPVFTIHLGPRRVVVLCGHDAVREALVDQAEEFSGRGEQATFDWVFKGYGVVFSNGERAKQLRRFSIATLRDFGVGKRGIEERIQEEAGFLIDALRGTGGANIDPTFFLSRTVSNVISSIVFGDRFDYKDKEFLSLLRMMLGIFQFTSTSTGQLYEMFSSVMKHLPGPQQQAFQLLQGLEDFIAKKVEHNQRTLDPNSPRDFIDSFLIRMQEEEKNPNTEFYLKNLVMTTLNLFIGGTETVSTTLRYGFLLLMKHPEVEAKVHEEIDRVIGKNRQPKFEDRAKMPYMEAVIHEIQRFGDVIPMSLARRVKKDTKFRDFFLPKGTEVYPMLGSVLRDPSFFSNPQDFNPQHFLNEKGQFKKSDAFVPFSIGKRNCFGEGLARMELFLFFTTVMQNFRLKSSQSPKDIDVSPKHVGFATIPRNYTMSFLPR

Cytochrome P450 2B6 = target: T3, Cytochrome P450 2B6 (Homo sapiens, UniProt P20813); test: Activity of human CYP2B6 assessed as compound formation treated with 2 and 20 uM brivanib for 20 mins by LC/MS analysis in presence of NADPH; format: ADME
T3 sequence (P20813 whole entry): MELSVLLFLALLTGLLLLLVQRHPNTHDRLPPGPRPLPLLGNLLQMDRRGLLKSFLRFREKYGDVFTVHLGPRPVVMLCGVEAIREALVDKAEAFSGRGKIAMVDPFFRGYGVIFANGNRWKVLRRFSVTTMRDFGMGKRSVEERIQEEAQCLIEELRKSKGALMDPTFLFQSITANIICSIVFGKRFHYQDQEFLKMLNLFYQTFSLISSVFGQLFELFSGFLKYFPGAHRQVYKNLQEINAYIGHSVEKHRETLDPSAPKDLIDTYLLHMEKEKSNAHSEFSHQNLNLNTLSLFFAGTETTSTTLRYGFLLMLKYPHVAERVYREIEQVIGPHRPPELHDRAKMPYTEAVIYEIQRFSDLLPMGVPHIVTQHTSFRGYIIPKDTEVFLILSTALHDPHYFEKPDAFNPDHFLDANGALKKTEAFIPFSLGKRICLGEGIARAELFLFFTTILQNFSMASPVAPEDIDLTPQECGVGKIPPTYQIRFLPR

Cytochrome P450 2C9 = Cytochrome P450 2C9 (Homo sapiens, UniProt P11712); test: Activity of human CYP2C9 assessed as compound formation treated with 2 and 20 uM brivanib for 20 mins by LC/MS analysis in presence of NADPH; format: ADME
Liver microsome [2] = test: Drug level in human liver microsomes treated with 2 and 20 uM brivanib for 30 mins by LC/MS analysis in presence of 2 uM CYP2A6 inhibitor tranylcypromine; format: ADME; details: 0.5 h
Liver microsome [3] = test: Drug level in human liver microsomes treated with 2 and 20 uM brivanib for 30 mins by LC/MS analysis in presence of 50 uM CYP2B6 inhibitor orphenadrine; format: ADME; details: 0.5 h
Liver microsome [4] = test: Drug level in human liver microsomes treated with 2 and 20 uM brivanib for 30 mins by LC/MS analysis in presence of 3 uM CYP2C8 inhibitor montekulast; format: ADME; details: 0.5 h
Cytochrome P450 1A1 = Cytochrome P450 1A1 (Homo sapiens, UniProt P04798); test: Activity of human CYP1A1 assessed as compound formation treated with 2 and 20 uM brivanib for 20 mins by LC/MS analysis in presence of NADPH; format: ADME
Cytochrome P450 1A2 = target: T4, Cytochrome P450 1A2 (Homo sapiens, UniProt P05177); test: Activity of human CYP1A2 assessed as compound formation treated with 2 and 20 uM brivanib for 20 mins by LC/MS analysis in presence of NADPH; format: ADME
T4 sequence (P05177 whole entry): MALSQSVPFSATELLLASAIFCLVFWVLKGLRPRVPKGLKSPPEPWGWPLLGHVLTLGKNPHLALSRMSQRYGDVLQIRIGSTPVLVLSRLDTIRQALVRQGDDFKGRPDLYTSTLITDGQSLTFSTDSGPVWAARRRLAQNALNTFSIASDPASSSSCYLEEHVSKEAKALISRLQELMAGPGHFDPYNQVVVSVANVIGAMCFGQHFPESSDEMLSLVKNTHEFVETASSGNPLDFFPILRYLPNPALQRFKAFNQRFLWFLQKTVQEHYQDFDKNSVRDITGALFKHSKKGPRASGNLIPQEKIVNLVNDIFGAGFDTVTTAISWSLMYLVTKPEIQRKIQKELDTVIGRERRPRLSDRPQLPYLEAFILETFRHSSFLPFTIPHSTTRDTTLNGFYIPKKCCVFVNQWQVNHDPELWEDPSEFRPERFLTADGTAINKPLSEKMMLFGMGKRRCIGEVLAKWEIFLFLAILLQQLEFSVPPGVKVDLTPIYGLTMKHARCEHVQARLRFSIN

Cytochrome P450 1B1 = Cytochrome P450 1B1 (Homo sapiens, UniProt Q16678); test: Activity of human CYP1B1 assessed as compound formation treated with 2 and 20 uM brivanib for 20 mins by LC/MS analysis in presence of NADPH; format: ADME
Cytochrome P450 3A4 = Cytochrome P450 3A4 (Homo sapiens, UniProt P08684); test: Activity of human CYP3A4 assessed as compound formation treated with 2 and 20 uM brivanib for 20 mins by LC/MS analysis in presence of NADPH; format: ADME
Liver microsome [5] = test: Drug level in human liver microsomes treated with 2 and 20 uM brivanib for 30 mins by LC/MS analysis in presence of 10 uM CYP2C9 inhibitor sulfaphenazole; format: ADME; details: 0.5 h
Liver microsome [6] = test: Drug level in human liver microsomes treated with 2 and 20 uM brivanib for 30 mins by LC/MS analysis in presence of 1 uM CYP2D6 inhibitor quinidine; format: ADME; details: 0.5 h
Liver microsome [7] = test: Drug level in human liver microsomes treated with 2 and 20 uM brivanib for 30 mins by LC/MS analysis in presence of 50 uM CYP2E1 inhibitor diethyldithiocarbamate; format: ADME; details: 0.5 h
Liver microsome [8] = test: Drug level in human liver microsomes assessed as compound formation treated with 2 uM [14C]brivanib alaninate for 60 mins by LC/MS analysis in presence of NADPH; format: ADME; details: 1 h
Liver microsome [9] = test: Drug metabolism in human liver microsomes assessed as (R)-4-fluoro-5-(6-(2-hydroxypropoxy)-5-methylpyrrolo[1,2-f][1,2,4]triazin-4-yloxy)-1H-indole-2-carboxylic acid formation at 2 uM for 60 mins by LC/MS analysis; format: ADME
Liver microsome [10] = test: Drug metabolism in human liver microsomes assessed as 1-(4-(4-fluoro-2-methyl-1H-indol-5-yloxy)-5-methylpyrrolo[1,2-f][1,2,4]triazin-6-yloxy)propan-2-one formation at 2 uM for 60 mins by LC/MS analysis; format: ADME
Liver microsome [11] = test: Drug metabolism in human liver microsomes assessed as (R)-1-(4-(4-fluoro-2-(hydroxymethyl)-1H-indol-5-yloxy)-5-methylpyrrolo[1,2-f][1,2,4]triazin-6-yloxy)propan-2-ol formation at 2 uM for 60 mins by LC/MS analysis in presence of NADPH; format: ADME
Liver microsome [12] = test: Drug metabolism in human liver microsomes assessed as (R)-4-fluoro-5-(6-(2-hydroxypropoxy)-5-methylpyrrolo[1,2-f][1,2,4]triazin-4-yloxy)-1H-indole-2-carboxylic acid formation at 2 uM for 60 mins by LC/MS analysis in presence of NADPH; format: ADME
Liver microsome [13] = test: Drug metabolism in human liver microsomes assessed as 1-(4-(4-fluoro-2-methyl-1H-indol-5-yloxy)-5-methylpyrrolo[1,2-f][1,2,4]triazin-6-yloxy)propan-2-one formation at 2 uM for 60 mins by LC/MS analysis in presence of NADPH; format: ADME
Liver microsome [14] = test: Drug metabolism in human liver microsomes assessed as brivanib formation at 2 uM for 60 mins by LC/MS analysis; format: ADME; details: 1 h
Liver microsome [15] = test: Drug metabolism in human liver microsomes assessed as brivanib formation at 2 uM for 60 mins by LC/MS analysis in presence of NADPH; format: ADME; details: 1 h
Liver microsome [16] = test: Drug metabolism in human liver microsomes assessed as (R)-1-(4-(4-fluoro-2-(hydroxymethyl)-1H-indol-5-yloxy)-5-methylpyrrolo[1,2-f][1,2,4]triazin-6-yloxy)propan-2-ol formation at 2 uM for 60 mins by LC/MS analysis; format: ADME
Liver cytosol [17] = test: Drug metabolism in human liver cytosol assessed as (R)-1-(4-(4-fluoro-2-methyl-1H-indol-5-yloxy)-5-methylpyrrolo[1,2-f][1,2,4]triazin-6-yloxy)propane-2-sulfonic acid formation at 2 uM for 2 hrs by LC/MS analysis in presence of PAPS; format: ADME

Sequence of Sulfotransferase 1A1 (P50225 whole entry): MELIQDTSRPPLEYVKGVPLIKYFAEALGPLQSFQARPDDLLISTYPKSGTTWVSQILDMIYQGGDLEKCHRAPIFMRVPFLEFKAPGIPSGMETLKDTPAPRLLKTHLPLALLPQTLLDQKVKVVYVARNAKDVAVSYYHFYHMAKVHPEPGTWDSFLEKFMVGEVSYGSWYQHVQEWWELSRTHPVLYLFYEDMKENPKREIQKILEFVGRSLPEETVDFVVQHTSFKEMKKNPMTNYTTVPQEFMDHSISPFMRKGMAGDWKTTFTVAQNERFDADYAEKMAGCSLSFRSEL
Sequence of Sulfotransferase 1E1 (P49888 whole entry): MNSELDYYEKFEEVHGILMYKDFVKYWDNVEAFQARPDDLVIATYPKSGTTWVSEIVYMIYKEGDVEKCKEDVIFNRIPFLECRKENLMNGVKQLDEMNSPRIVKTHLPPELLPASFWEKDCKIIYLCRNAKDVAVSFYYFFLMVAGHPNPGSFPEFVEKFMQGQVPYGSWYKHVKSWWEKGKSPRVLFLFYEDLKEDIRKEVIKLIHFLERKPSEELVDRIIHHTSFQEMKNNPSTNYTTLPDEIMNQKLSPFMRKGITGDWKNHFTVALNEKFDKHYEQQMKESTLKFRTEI
Sequence of Sulfotransferase 1B1 (O43704 whole entry): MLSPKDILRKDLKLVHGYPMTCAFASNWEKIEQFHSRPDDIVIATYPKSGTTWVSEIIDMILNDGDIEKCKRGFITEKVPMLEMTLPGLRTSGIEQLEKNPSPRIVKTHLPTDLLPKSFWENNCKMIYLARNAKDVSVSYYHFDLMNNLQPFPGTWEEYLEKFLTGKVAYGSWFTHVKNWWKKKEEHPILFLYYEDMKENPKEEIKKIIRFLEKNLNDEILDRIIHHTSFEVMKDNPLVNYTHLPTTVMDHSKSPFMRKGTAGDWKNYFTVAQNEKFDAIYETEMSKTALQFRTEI
Sequence of Cytochrome P450 2C19 (P33261 whole entry): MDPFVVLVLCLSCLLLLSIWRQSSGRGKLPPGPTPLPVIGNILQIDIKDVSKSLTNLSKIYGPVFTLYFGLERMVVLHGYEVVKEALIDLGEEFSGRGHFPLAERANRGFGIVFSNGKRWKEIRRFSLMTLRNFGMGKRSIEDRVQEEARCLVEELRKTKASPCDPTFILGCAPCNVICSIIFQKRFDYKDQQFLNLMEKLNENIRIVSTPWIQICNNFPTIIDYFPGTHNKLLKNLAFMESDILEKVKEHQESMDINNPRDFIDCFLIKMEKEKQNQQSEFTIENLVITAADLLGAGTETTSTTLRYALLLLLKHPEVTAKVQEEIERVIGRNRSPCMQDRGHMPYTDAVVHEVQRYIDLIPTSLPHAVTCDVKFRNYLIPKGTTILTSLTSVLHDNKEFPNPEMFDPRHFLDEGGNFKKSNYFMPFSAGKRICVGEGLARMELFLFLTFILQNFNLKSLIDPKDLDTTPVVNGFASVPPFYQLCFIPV
Sequence of Cytochrome P450 1B1 (Q16678 whole entry): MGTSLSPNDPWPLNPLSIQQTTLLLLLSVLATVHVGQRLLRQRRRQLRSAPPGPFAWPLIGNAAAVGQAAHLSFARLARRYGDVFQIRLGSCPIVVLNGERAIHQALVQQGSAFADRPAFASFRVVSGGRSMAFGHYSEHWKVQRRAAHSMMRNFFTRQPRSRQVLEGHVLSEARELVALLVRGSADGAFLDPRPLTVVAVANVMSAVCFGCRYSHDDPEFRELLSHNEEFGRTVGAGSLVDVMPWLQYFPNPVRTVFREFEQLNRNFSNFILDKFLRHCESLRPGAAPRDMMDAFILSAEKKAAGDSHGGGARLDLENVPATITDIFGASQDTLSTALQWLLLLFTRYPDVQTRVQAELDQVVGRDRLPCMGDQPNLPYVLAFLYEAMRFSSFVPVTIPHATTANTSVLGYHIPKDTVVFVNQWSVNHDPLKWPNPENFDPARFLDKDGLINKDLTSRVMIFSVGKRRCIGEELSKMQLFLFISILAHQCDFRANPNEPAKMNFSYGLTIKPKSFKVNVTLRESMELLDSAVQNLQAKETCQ
Sequence of Cytochrome P450 3A4 (P08684 whole entry): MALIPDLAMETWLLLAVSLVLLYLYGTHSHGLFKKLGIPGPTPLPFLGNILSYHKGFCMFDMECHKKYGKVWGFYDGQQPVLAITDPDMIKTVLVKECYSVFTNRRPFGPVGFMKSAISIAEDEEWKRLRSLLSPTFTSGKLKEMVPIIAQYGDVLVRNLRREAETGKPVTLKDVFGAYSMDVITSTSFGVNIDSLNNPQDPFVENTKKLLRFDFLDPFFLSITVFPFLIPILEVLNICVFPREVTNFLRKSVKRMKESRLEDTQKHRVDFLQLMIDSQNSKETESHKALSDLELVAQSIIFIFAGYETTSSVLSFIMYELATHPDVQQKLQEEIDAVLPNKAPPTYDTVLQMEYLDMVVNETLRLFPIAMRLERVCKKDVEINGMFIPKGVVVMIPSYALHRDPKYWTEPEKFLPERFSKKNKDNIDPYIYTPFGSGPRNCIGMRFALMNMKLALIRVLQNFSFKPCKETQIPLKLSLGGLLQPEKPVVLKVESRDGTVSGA
Sequence of Cytochrome P450 2C9 (P11712 whole entry): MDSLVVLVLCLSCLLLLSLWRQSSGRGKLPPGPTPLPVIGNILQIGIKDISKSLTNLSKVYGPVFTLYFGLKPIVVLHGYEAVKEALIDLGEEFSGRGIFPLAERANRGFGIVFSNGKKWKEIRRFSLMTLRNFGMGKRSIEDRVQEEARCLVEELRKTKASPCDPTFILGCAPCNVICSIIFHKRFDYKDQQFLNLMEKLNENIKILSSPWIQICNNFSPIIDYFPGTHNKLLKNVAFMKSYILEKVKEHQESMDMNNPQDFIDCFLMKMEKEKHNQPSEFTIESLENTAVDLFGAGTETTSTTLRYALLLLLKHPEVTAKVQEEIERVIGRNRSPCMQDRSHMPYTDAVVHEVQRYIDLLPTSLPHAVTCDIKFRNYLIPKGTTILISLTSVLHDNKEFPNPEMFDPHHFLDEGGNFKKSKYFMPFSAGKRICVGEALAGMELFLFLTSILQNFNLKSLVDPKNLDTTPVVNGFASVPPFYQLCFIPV
Sequence of Sulfotransferase 2A1 (Q06520 whole entry): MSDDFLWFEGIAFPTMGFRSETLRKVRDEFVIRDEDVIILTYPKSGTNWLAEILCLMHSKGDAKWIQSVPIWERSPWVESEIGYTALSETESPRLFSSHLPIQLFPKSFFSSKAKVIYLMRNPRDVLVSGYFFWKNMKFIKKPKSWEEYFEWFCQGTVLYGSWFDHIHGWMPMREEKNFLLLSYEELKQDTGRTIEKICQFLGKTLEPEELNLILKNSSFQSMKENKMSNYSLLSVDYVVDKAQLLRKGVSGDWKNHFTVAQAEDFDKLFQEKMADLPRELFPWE
Sequence of Cytochrome P450 2D6 (P10635 whole entry): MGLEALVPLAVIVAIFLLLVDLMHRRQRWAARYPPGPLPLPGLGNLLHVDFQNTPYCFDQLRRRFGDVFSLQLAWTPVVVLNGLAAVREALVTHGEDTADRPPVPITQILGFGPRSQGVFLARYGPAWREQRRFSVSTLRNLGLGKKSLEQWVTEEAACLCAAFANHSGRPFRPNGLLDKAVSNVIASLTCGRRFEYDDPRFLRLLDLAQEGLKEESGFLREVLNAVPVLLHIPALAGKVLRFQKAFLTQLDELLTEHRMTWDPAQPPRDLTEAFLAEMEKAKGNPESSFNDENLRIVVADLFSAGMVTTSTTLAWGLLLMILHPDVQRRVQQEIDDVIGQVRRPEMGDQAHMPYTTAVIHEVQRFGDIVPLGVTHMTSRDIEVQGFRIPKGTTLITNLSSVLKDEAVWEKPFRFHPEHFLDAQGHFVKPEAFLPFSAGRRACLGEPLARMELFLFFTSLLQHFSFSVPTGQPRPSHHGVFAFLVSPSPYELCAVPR
Sequence of Sulfotransferase 1A3 (P0DMM9 whole entry): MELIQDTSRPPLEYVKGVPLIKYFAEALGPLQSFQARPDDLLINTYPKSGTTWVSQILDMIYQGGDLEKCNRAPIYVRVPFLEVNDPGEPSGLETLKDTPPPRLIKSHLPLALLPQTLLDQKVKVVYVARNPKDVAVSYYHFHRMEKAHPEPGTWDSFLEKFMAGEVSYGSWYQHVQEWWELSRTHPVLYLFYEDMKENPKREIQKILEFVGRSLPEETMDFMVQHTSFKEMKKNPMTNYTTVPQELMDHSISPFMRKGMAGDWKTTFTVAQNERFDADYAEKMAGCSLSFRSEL
Sequence of Cytochrome P450 1A1 (P04798 whole entry): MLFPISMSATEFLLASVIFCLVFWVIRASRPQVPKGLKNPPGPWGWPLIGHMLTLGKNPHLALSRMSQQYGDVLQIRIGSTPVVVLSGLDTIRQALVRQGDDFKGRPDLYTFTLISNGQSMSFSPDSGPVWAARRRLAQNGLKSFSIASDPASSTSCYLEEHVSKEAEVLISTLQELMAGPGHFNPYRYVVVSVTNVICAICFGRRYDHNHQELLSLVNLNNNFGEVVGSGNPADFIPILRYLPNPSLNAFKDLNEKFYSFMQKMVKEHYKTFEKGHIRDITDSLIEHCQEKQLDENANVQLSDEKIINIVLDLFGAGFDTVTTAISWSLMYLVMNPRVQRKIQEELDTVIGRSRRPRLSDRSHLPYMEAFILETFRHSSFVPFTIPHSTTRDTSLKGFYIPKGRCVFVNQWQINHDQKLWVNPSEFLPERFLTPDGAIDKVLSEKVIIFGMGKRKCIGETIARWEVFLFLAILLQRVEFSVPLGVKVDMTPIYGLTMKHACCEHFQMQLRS

Cc1cc2c(F)c(Oc3ncnn4cc(OC[C@@H](C)OS(=O)(=O)O)c(C)c34)ccc2[nH]1
Drug metabolism (Liver cytosol [1]): metabolite_detected | Drug metabolism (Sulfotransferase 1A1): metabolite_detected | Drug metabolism (Sulfotransferase 1A3): metabolite_detected | Drug metabolism (Sulfotransferase 2A1): metabolite_detected | Drug metabolism (Sulfotransferase 1B1): metabolite_detected | Drug metabolism (Sulfotransferase 1E1): metabolite_detected

Cc1c(OC[C@@H](C)O)cn2ncnc(Oc3ccc4[nH]c(CO)cc4c3F)c12
Drug metabolism (Cytochrome P450 2D6): metabolite_detected | Drug metabolism (Cytochrome P450 3A5): metabolite_detected | Drug metabolism (Cytochrome P450 2C19): metabolite_detected | Drug metabolism (Cytochrome P450 2C8): metabolite_detected | Drug metabolism (Cytochrome P450 2A6): metabolite_detected | Drug metabolism (Cytochrome P450 2B6): metabolite_detected | Drug metabolism (Cytochrome P450 2C9): metabolite_detected | Drug metabolism (Liver microsome [2]): metabolite_detected | Drug metabolism (Liver microsome [3]): metabolite_detected | Drug metabolism (Liver microsome [4]): metabolite_detected | Drug metabolism (Cytochrome P450 1A1): metabolite_detected | Drug metabolism (Cytochrome P450 1A2): metabolite_detected | Drug metabolism (Cytochrome P450 1B1): metabolite_detected | Drug metabolism (Cytochrome P450 3A4): metabolite_detected | Drug metabolism (Liver microsome [5]): metabolite_detected | Drug metabolism (Liver microsome [6]): metabolite_detected | Drug metabolism (Liver microsome [7]): metabolite_detected | Drug metabolism (Liver microsome [8]): metabolite_detected

Cc1cc2c(F)c(Oc3n[14cH]nn4cc(OC[C@@H](C)OC(=O)[C@H](C)N)c(C)c34)ccc2[nH]1
Drug metabolism (Liver microsome [9]): metabolite_not_detected | Drug metabolism (Liver microsome [10]): metabolite_not_detected | Drug metabolism (Liver microsome [11]): metabolite_detected | Drug metabolism (Liver microsome [12]): metabolite_detected | Drug metabolism (Liver microsome [13]): metabolite_detected | Drug metabolism (Liver microsome [14]): metabolite_detected | Drug metabolism (Liver microsome [15]): metabolite_detected | Drug metabolism (Liver microsome [16]): metabolite_not_detected | Drug metabolism (Liver cytosol [17]): metabolite_detected
